Reference: US20060008541A1, “Sodium channel agonist” (BIZMEDIC CO., LTD., priority 2004, published 2006)
Several values for one entry are separate records, joined by “and”; a condition that tells them apart may be missing. Identical values can stand only once. Entries after “also recorded” stand apart in the source; their conditions may differ.

Assays:
cardiac INa = cardiac INa (Homo sapiens, UniProt Q14524); details: cited from earlier work
L-type calcium current = L-type calcium current (Homo sapiens, UniProt Q13936); details: cited from earlier work
[1] = test system: inward rectifier K+ current; details: cited from earlier work
rat ventricular myocytes = experiment: Action potentials in isolated rat ventricular myocytes, whole-cell current clamp
Experimental: Ventricular myocytes were isolated from the hearts of 3-week or 6 to 7- week-old Sprague-Dawley rats of either sex. Rats were anaesthetized with pentobarbitone sodium (i.p. 200 mg kg^−1). Isolated hearts were mounted on a Langendorff perfusion apparatus, washed at 37° C. for 5 min with a modified Tyrode solution containing (mM): 143 NaCl, 5.4 KCl, 5 HEPES, 0.5 MgCl2, 0.5 NaH2PO4, 1.8 CaCl2, 10 glucose, adjusted pH to 7.4 with NaOH, and then perfused with Ca^2+-free Tyrode solution for 5 min. After the hearts had stopped beating, Ca^2+-free Tyrode solution containing collagenase (0.5 mg ml^−1, Type II, Worthington) was perfused for 30 min. Finally, this enzyme containing solution was washed out for 5 min with a high K^+, low Cl^−KB solution containing (in mM): 70 K-glutamate, 55 KCl, 10 HEPES, 3 MgCl2, 20 taurine, 20 KH2PO4, 0.5 K-EGTA adjusted pH to 7.3 with KOH. A portion of the left ventricle was then dissected out and gently stirred with a forceps in KB solution. The isolated ventricular myocytes were kept in KB solution at 5° C. before use.
Patch pipettes (1˜2 MΩ when filled with experimental solutions) were pulled from borosilicate glass capillaries (Harvard Apparatus Ltd, UK). Conventional whole-cell patch clamp technique was used to record membrane current or voltage from single ventricular myocytes. In current-clamp mode, action potentials were evoked by a brief supra-threshold current pulse. In voltage clamp mode, access resistance was monitored throughout the experiment, and data were accepted only when the access resistance was kept below 6 MΩ. Filtered signals (10 KHz) from a patch clamp amplifier (Biologic RK 300, France), were fed into AD/DA converter (PCI-MIO-16E-4, National Instrument, USA), digitized at 20 KHz, and stored in PC for later analysis. The flow rate of the perfusion solution was 0.5˜1 ml min^−1. All electrophysiological experiments were performed at room temperature (23˜25° C.). The statistical results in the text and in figures were presented as means ±S.E.M. (n=number of cells studied). Statistical significance was accepted for p value <0.05.
APs were evoked by applying 50-70 pA depolarising current pulses (5 ms in duration) every 500 ms through a patch pipette in current clamp mode with a whole-cell configuration. The effects of dmLSB on APD were quantified in terms of APD90; defined as the APD measured at the voltage at which repolarization process is 90% complete. Time-profile of the change in APD90 values averaging from five sequential APs selected every 12 seconds was plotted in FIG. 2A as a function of whole-cell recording time.
Experimental methods for electrophysiology (recording currents and action potentials) are the same as described above for dmLSB.

[2] = test system: inward rectifier K+ currents and delayed rectifier K+ currents; experiment: K+ currents in rat ventricular myocytes, voltage clamp with K+-rich pipette solution; assay type: cell-based; details: 10 μM dmLSB; I950ms
Experimental: (§1) Statistical significance was accepted for p value <0.05.
The K-rich pipette solution containing (in mM): 90 K-aspartate, 30 KCl, 2 MgCl2, 5 Mg-ATP, 10 HEPES, 5 K-EGTA, 5 diTris-creatine phosphate, 2.5 Na2-creatine phosphate was used. Cs-aspartate internal solution contained (in mM): 90 Cs-aspartate, 20 CsCl, 2 MgCl2, 5 Mg-ATP, 10 HEPES, 2.5 Na2-creatine phosphate, 10 tetraethyl-ammonium chloride (TEA-Cl), 5 Cs-EGTA with pH adjusted to 7.3 using CsOH. When Cs-aspartate internal solution was used in combination with normal Tyrode (NT) bathing solution, the holding current level was inward at −80 mV, probably due to K^+ influx via inward rectifier K channels. To prevent this inward holding current, KCl in the NT solution was substituted with equimolar CsCl.
To elucidate the mechanism underlying APD change by dmLSB, voltage-clamp experiments were performed and the effects of dmLSB on the ionic currents in rat ventricular myocytes were investigated. Membrane currents were recorded in a voltage clamp mode using a patch pipette containing a K^+-rich (140 mM) internal solution. […]
However, initial amplitudes measured at 20 ms (I20ms) in the presence of dmLSB differed from those measured under control conditions, and the I-V relationship deviated inwardly by dmLSB. […]

Na+ current (INa) = Na+ current (INa) (Rattus norvegicus, UniProt P15389); experiment: Na+ current (INa) in rat ventricular myocytes, whole-cell voltage clamp; assay type: cell-based; set-up: endogenous in cells; host or cells: freshly isolated rat (Sprague-Dawley) left ventricular myocytes
Source text: as §1
As sodium current (INa) in ventricular myocytes is so fast and large that membrane potential is prone to escape from the command voltage, it is necessary to reduce INa for a quantitative analysis. For this purpose, small ventricular myocytes isolated from young (3-weeks-old) rats were used, and currents recorded in a modified Cs^+-based low Na^+ bath solution (Yuill et al., 2000) which contained (in mM): 130 CsCl, 10 NaCl, 2.5 MgCl2, 0.5 CaCl2, 20 HEPES, 11 glucose, in experiments shown in FIG. 5. It was reported that the kinetics of INa in the standard solution (145 mM Na^+) and in Cs-based solution (10 mM Na^+) were similar.
To examine the effect of dmLSB on inward currents, a Cs^+-rich pipette solution containing 10 mM EGTA was used. To distinguish L-type Ca^2+ currents (ICa,L) from Na^+ currents (INa), a two-step pulse protocol was used (inset of FIG. 4A). […] Although the peak amplitude of INa was unaffected by dmLSB, significant broadening of inactivation phase was observed.
To avoid the problem of voltage escape and to investigate the effects of dmLSB on INa in a quantitative manner, INa was recorded in low external [Na^+] (10 mM). It is well known that the steady-state inactivation shifted spontaneously during whole-cell mode recording. To activate INa from the potential at which inactivation is fully recovered, depolarising test pulses were applied following a 500 ms pre-pulse to −120 mV. To eliminate the contamination of ICa,L and to isolate pure INa, current response to the same test pulse from holding potential (Vh) of −40 mV, which was regarded as ICa,L, was subtracted from that from Vh of −120 mV.
Pre-pulses of 500 ms duration at variable potentials (from −150 to −15 mV in 15 mV steps) preceded a 50 ms test pulse to −20 mV. The superimposed current responses to the test pulse (−20 mV) are shown in FIG. 6A (left, control; right, 20 μM dmLSB). […] The peak amplitudes of INa are plotted against pre-pulse voltages in FIG. 6B. […] The voltages for half inactivation were −75.7±0.61 mV (n=28) in control and −77.8±1.05 mV (n=32) in the presence of dmLSB (t-test, p>0.05).
Since dmLSB specifically affected the slow phase of inactivation, the difference current represented the slow inactivating INa (ISlow) induced by dmLSB. To quantify the magnitude of the effect of dmLSB on INa, the relative amplitude of ISlow to the peak INa was plotted.
Since dmLSB is lipophilic, it is possible that it permeates the plasma membrane and binds to intracellular receptors or to Na channel protein itself. It is not clear whether its effects were mediated via a cell surface binding site, an intracellular site, or both. To test this possibility, a ventricular myocyte was perfused intracellularly with the patch pipette solution containing 20 μM dmLSB, and INa was monitored while patch pipette solution diffused-in. Meanwhile, the series resistance (RS) was kept below 7 MΩ. As soon as the whole-cell patch was established, INa was recorded at a test potential of −20 mV, and this current trace was subtracted from subsequent INa records. The amplitudes of the subtracted currents were plotted as a function of whole-cell recording time (WCR time; FIG. 8A). […] No change in the inactivation kinetics of INa was observed until dmLSB was applied externally. When 5 μM dmLSB was bath-applied at ca 13 min of WCR time to the same cell, ISlow appeared, indicative of the dmLSB effect.

[3] = target: L-type Ca2+ current (ICa,L) (Rattus norvegicus, UniProt P22002); assay type: cell-based; details: 10 μM dmLSB
[4] = mean value, during dmLSB superfusion, n=7

Na+ current (INa), sequence (P15389 whole entry): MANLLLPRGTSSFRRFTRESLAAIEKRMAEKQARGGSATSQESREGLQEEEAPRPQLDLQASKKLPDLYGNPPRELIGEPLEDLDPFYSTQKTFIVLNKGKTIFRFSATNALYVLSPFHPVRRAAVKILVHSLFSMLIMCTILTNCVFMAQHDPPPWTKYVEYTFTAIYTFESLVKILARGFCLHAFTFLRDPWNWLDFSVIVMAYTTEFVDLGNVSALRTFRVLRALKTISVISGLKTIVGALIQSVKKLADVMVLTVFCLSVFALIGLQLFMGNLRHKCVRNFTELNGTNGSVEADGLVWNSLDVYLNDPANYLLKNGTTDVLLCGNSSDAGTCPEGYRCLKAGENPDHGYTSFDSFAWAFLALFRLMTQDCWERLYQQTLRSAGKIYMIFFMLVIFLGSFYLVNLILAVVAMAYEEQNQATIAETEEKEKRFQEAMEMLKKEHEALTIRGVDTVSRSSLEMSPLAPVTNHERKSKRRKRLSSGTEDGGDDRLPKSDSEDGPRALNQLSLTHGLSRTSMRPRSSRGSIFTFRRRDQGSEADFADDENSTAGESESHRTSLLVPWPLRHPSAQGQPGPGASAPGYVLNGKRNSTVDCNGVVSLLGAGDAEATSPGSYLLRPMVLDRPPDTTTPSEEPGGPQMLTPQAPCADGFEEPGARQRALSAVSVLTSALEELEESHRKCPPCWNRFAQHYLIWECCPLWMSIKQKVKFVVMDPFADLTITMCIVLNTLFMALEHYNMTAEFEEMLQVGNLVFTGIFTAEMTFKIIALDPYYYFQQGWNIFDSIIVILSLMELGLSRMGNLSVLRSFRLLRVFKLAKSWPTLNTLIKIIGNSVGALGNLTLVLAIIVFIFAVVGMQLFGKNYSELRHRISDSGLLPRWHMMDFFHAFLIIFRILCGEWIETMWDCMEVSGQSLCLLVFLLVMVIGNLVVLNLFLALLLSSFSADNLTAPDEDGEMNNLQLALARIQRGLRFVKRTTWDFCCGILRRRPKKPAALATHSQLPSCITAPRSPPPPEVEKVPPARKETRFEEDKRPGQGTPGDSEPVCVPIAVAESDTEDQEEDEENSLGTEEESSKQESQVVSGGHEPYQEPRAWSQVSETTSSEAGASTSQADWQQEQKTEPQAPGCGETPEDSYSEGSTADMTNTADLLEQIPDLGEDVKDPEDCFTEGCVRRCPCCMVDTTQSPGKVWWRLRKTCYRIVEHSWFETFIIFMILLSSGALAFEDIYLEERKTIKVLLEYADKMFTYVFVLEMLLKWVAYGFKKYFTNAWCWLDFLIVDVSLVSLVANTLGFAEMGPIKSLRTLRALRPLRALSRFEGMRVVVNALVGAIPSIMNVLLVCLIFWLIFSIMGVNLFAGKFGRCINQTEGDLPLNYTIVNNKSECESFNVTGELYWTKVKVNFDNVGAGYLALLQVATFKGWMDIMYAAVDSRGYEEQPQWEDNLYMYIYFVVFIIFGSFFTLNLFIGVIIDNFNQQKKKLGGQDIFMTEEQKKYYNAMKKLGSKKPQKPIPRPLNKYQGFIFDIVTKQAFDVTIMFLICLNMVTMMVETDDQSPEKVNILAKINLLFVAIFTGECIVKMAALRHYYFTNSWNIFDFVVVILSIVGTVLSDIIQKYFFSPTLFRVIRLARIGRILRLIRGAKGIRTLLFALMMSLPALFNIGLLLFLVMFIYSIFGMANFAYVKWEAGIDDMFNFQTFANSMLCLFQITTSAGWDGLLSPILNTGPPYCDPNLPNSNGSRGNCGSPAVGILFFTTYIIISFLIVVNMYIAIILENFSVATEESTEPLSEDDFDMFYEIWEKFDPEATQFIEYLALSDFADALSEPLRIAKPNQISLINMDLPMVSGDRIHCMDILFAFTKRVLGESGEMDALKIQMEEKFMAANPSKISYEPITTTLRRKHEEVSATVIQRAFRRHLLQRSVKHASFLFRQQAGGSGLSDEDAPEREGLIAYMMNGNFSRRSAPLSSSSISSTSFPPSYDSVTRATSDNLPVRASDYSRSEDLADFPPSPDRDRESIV
cardiac INa, sequence (Q14524 whole entry): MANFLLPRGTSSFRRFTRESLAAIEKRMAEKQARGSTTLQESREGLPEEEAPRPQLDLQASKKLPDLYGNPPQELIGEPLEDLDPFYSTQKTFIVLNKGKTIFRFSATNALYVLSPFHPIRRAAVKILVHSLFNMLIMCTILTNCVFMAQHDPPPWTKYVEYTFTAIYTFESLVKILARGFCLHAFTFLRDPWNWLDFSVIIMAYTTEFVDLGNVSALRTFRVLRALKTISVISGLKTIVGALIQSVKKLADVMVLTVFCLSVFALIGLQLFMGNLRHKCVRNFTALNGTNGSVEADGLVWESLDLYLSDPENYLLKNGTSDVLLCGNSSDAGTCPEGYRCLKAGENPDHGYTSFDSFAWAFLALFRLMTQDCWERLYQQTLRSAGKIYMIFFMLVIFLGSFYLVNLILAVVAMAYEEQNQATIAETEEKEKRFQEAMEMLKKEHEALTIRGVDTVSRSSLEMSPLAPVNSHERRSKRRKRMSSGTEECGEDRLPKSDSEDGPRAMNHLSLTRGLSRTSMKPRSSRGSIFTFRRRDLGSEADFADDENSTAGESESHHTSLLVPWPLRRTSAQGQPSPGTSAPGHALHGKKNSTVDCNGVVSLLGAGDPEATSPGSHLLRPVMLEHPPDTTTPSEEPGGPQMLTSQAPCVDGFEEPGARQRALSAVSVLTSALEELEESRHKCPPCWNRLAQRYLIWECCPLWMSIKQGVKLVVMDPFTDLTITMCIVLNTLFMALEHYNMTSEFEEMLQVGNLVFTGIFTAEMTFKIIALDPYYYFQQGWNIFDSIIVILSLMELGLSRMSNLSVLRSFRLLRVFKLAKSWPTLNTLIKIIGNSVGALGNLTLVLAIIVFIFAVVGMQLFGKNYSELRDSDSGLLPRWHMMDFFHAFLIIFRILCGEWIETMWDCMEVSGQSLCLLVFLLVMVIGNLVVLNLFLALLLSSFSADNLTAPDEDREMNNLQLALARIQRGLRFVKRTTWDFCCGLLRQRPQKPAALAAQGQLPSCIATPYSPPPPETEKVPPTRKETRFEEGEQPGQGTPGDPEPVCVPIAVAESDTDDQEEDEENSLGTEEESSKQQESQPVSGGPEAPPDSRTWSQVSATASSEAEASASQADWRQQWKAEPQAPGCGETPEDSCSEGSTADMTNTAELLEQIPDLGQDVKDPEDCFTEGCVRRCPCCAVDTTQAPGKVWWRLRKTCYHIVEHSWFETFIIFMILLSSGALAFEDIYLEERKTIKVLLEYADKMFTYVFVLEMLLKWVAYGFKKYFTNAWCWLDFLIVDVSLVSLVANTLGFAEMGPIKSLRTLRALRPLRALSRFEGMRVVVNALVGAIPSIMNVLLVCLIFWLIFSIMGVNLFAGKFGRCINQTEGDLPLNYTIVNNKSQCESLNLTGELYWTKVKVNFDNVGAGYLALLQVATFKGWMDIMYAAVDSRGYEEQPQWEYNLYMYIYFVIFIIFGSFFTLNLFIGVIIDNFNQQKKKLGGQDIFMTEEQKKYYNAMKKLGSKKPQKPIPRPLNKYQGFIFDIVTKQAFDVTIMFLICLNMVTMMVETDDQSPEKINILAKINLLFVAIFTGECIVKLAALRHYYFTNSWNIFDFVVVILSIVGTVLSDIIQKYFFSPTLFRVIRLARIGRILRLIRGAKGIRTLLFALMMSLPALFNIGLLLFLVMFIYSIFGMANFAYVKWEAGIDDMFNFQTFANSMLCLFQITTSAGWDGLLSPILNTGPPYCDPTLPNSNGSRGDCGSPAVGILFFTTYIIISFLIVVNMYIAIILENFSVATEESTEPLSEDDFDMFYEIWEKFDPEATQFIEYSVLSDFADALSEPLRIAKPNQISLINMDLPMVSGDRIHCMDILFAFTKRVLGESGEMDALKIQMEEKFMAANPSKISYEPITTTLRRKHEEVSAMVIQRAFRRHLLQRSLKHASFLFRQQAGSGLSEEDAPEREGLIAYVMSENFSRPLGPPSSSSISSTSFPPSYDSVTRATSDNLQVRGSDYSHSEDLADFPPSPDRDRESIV

N#Cc1cc2c(OCC(O)COC3CN(C(c4ccccc4)c4ccccc4)C3)cccc2[nH]1 (stereo not shown) [BDF 9148]
persistent INa (literature) (cardiac INa): induce a persistent INa
calcium current (literature) (L-type calcium current): inhibit
inward rectifier K+ current (literature) [1]: inhibit

N#Cc1cc2c(OCC(O)CN3CCN(C(c4ccccc4)c4ccccc4)CC3)cccc2[nH]1 (stereo not shown) [DPI 201-106]
persistent INa (literature) (cardiac INa): induce a persistent INa
calcium current (literature) (L-type calcium current): inhibit
inward rectifier K+ current (literature) [1]: inhibit

Cc1oc2ccccc2c1Cc1cc(I)c(OCC(=O)O)c(I)c1 [KB130015, 2-Methyl-3-(3,5-diiodo-4-carboxymethoxybenzyl)benzofuran]
INa inactivation (literature) (cardiac INa): slowed INa inactivation
persistent INa (literature) (cardiac INa): without developing persistent INa
calcium current (literature) (L-type calcium current): reduces ICa

O=C(/C=C/c1ccc(O)c2c1C(C(=O)OC(Cc1ccc(O)c(O)c1)C(=O)O)C(c1ccc(O)c(O)c1)O2)OC(Cc1ccc(O)c(O)c1)C(=O)O (stereo not shown) [LSB, lithospermate B, reference compound]
electrophysiological effect (rat ventricular myocytes): negligible electrophysiological effect; also recorded: no effect on cardiac action potential

COC(=O)[C@@H](Cc1ccc(O)c(O)c1)OC(=O)/C=C/c1ccc(O)c2c1[C@H](C(=O)O[C@H](Cc1ccc(O)c(O)c1)C(=O)OC)[C@@H](c1ccc(O)c(O)c1)O2 [dmLSB, dimethyl lithospermate B]
effect on K+ currents [2]: no noticeable effect; also recorded: no significant difference
INa inactivation kinetics (Na+ current (INa)): slowed the inactivation kinetics
steady-state (s-s) inactivation of INa (Na+ current (INa)): not affected; also recorded: no effect on the steady-state inactivation
peak amplitude of INa (Na+ current (INa); 10 μM dmLSB): unaffected; also recorded: decreased slightly
time within which INa inactivation was completed (Na+ current (INa); 10 μM dmLSB, −20 mV): ≤ 50 ms
effect of intracellular application on INa (Na+ current (INa); 20 μM dmLSB in pipette solution, n=4): essentially no effect on INa
V1/2 of steady-state inactivation fit (Na+ current (INa); 20 μM dmLSB, n=32, control −75.7, no unit): −77.8
voltage for half inactivation (Na+ current (INa); 20 μM dmLSB, n=32, control −75.7±0.61 mV): −77.8±1.05 mV
k of steady-state inactivation fit (Na+ current (INa); 20 μM dmLSB, control 10.20): 9.99
amplitude of the slow component (AS), of the peak INa (Na+ current (INa); at −20 mV, 10 μM dmLSB, bi-exponential fit, n=4): 22.1±1.02%
time to maximal effect at each concentration (Na+ current (INa); bath application): ca. 150 seconds
Hill coefficient (Na+ current (INa); dose-response of ISlow relative to peak INa): 1.02
mean voltage for half-maximal activation (Na+ current (INa); in the presence of 10 μM dmLSB, low [Na+] 10 mM, n=4, control −42.35±1.1): −37.28±0.8
EC50 (Na+ current (INa); test pulse −20 mV, Hill fit, read-out: EC50, relative amplitude of slow component (ISlow) to peak INa): 21.1 µM and 20 µM
shift of voltage-dependence of activation (activation curve) (Na+ current (INa); to the depolarised (right) direction, 10 μM dmLSB): 5 mV
reversibility of effect on INa (Na+ current (INa); wash-out): reversible; also recorded: completely reversed after the wash-out
effect on Ca2+ currents (ICa,L) [3]: no noticeable effect; also recorded: hardly affected; also recorded: No significant difference
Action potential duration (APD90) (rat ventricular myocytes; 20 μM dmLSB, control 58.8±12.1 ms, n=7): 202.3 ± 9.5 ms
early after-depolarisation (EAD) (rat ventricular myocytes; during prolonged plateau phase of AP): no early after-depolarisation was observed; also recorded: not associated with the generation of EAD; also recorded: no EAD observed
effect on AP duration (APD) (rat ventricular myocytes; isolated rat ventricular myocytes): increases the APD
overshoot potential (rat ventricular myocytes; [4]): 53.53±8.8 mV
resting membrane potential (RMP) (rat ventricular myocytes; [4]): −68.46±2.6 mV
concentration at which APD prolongation was maximal (rat ventricular myocytes; tested up to 100 μM): 20 µM

CC1(C)C(C(=O)OC(C#N)c2cccc(Oc3ccccc3)c2)C1(C)C (stereo not shown) [fenpropathrin]
activation and inactivation curves of INa (literature) (cardiac INa): leftward shifts
